Source: patent publication US20110027354A1, “ANTI-PA[…]” (priority 2008, published 2011)
“Also recorded” adds a separate entry of the source.

What was measured:
mice = test: Conditioned place preference (CPP); assay type: in vivo; conditions: selegiline or MPPE 2.5 or 5.0 mg/kg i.p., MA 0.5 or 1.0 mg/kg i.p.; vs. saline
Protocol: For conditioned place preference (CPP) test, mice received an i.p. injection of saline just before entering the […] compartment. MA (0.5 or 1.0 mg/kg, i.p.), selegiline (2.5 or 5.0 mg/kg, i.p.), and MPPE (2.5 or 5.0 mg/kg, i.p.) dissolved in saline was administered immediately before the mice were placed in the white compartment. On day 1, the mice were pre-exposed to the test apparatus for 15 minutes. The guillotine style doors were raised and mice were allowed to move freely between the two compartments. On day 2, the time each mouse spent in each compartment was recorded for 15 minutes. On days 3, 5, 7, 9, 11, and 13, the mice were injected with each drug before being confined to the white compartment, the non-preferred side, for 40 minutes. On day 14, the guillotine doors were raised. The mice were initially placed in the tunnel and the time spent by the mice in the two compartments was recorded for 15 minutes. The scores were calculated from the differences in the time spent in the white compartment in the testing and pre-testing phases. Data were analyzed between 09:00 and 17:00 hours.

[1] = system: tyrosine hydroxylase (TH); test: TH-immunoreactivity by immunocytochemistry; assay type: in vivo, mice; conditions: for effect on MPTP-induced decrease of TH-immunoreactivity (TH-IR): immunocytochemistry (ICC), vs. MPTP alone; for TH-immunoreactivity: drug alone (no MPTP)
Protocol: Animals were sacrified at 1 day after MPTP-treatment. They were anesthetized with 60% urethane and perfused transcardially with 200 ml of 50 mM phosphate buffered saline (PBS), followed by 50 ml of paraformaldehyde in PBS. The brain were fixed at 4° C. for 24 h in the same fixative and then cryoprotected in 30% sucrose. The brains were sectioned on a horizontal sliding microstome into 35 μm transverse free-floating sections.
The immunocytochemistry was performed as described previously (Kim et al., 2000a; Kim et al., 2000b). Briefly, prior to incubation with the primary antibodies, sections were preincubated with 0.3% hydrogen peroxide in PBS for 30 min (to block endogenous peroxidase activity), then in PBS containing 0.4% Triton X-100 for 20 min and 1% no: mal serum for 20 min. After a 48 h incubation with the primary antibody at 4° C., sections were incubated with the secondary biotinylated antisera (1:1000 dilution; Vector, Brulingame, Calif.) for 1 h, washed, and immersed in avidin-biotin-peroxidase complex (ABC Elite kit, Vector) for 1 hr. Sections were always washed three times with PBS between each incubation step. 3,3′-Diaminobenzidine (DAB) was used as the chromogen. The quantitative analyses were performed using a computer-based image analysis system (Optimas version 6.2; Neurolucida Program) (Kim et al., 1999).

[2] = system: tyrosine hydroxylase (TH); test: Western blotting for pan-TH and TH phosphorylation; assay type: in vivo, mice; conditions: for effect on MPTP-induced decrease of TH phosphorylation at Ser19, Ser31 and Ser40: pre-treatment; for effect on MPTP-induced decrease of TH phosphorylation at Ser19, Ser31 and Ser40 / effect on MPTP-induced decrease of TH-immunoreactivity (TH-IR): vs. MPTP alone
Protocol: (§1) The western blot assays were performed as described previously (thong et al., 1997). Tissues were homogenized in lysis buffer, containing 200 mM Tris HCl (pH 6.8), 1% SDS, 5 mM ethylene glycol tetraacetic acid, 5 mM ethylenediaminetetraacetic acid, 10% glycerol, 1× phosphatase inhibitor cocktail I, 1× protease inhibitor cocktail. The supernatant fraction was subsequently centrifuged at 30,000×g for 30 min. The resulting pellet was resuspended in the sample buffer. Proteins (20-50 ug/lane) were separated by 6%, 8%, 10% or 15% sodium dodecyl sulfate-polyacrylamide gel electrophoresis and transferred onto the nitrocellulose membranes. Following transfer, the nitrocellulose membranes were preincubated with 5% non-fat milk and incubated overnight at 4° C. with anti-β-actin (Sigma, 1:50000), anti-TH (Chemicon, 1:5000), anti-TH phosphoser19 (Chemicon, 1:5000), anti-TH phosphoser31 (Chemicon, 1:500), anti-TH phosphoser40 (Chemicon, 1:500), anti-F 4/80 (Serotec, 1:500), anti-BDNF (Chemicon, 1:500), anti-GDNF (Santa-Cruz, 1:250), anti-Akt (Cell signaling, 1:1000), anti-phospho Akt ser 473 (Cell signaling, 1:1000), anti-PI3K (Cell signaling, 1:1000), anti-phospho PI3K (Cell signaling, 1:500) and anti-α-synuclein (BD Transduction, 1:500) antibody. After incubation with primary antibody, membranes were incubated with the secondary anti-rabbit IgG, Horseradish Peroxidase (1:1000 dilution, Amersham) or anti-mouse IgG, Horseradish Peroxidase (1:1000, Sigma), or anti-goat IgG, Horseradish Peroxidase (1:1000, Sigma) for 2 h, washed. Subsequently visualized with the Amersham ECL system (Amersham, Arlington Heights, Ill., USA).

[3] = system: F4/80, a marker of reactive microglia; test: F4/80 expression (western blot); assay type: in vivo, mice; conditions: striatum; pre-treatment; vs. MPTP alone
Protocol: as §1, with “After incubation with primary antibody, membranes were incubated with the secondary anti-rabbit IgG, Horseradish Peroxidase (1:1000 dilution, Amersham) or anti-mouse IgG, Horseradish Peroxidase (1:1000, Sigma), or anti-goat IgG, Horseradish Peroxidase (1:1000, Sigma) for 2 h, washed. Subsequently visualized with the Amersham ECL system (Amersham, Arlington Heights, Ill., USA).” left out

[4] = system: reactive oxygen species (ROS); test: Determination of ROS formation; assay type: in vivo, mice; conditions: striatum; for ROS level: drug alone (no MPTP); for effect on MPTP-induced increase in ROS level: one day after final MPTP, vs. MPTP alone
Protocol: The extent of reactive oxygen species (ROS) formation in the prefrontal cortex was assessed by measuring the conversion from 2′,7′-dichlorofluorescin diacetate (DCFH-DA) to dichlorofluoresin. (DCF) as describe by Bourre et al. with slight modification (Sutsumi, S et al., 2002). Brain homogenates were added to a tube containing 2 ml of PBS with 10 nmole of DCFH-DA, dissolved in methanol. Mixtures were incubated at 37° C. for 3 h and then measured the […] at 480 nm excitation and 525 nm emission. DCF is used as a standard.

protein carbonyl = test: Determination of protein carbonyl (Oxyblot assay); assay type: in vivo, mice; conditions: striatum; for protein carbonyl expression: drug alone (no MPTP); for effect on MPTP-induced increase in protein carbonyl expression: one day after final MPTP, vs. MPTP alone
Protocol: Total protein ([…]) was used to perform the Oxyblot assay. The amount of oxidized proteins was measured using the Oxyblot kit (Chemicon International, CA), following the manufacturer's instructions. Briefly, the protein carbonyl content was measured by first forming labeled protein hydrazone derivatives using 2,4-dinitrophenylhydrazide (DNP). The INP-derivatized protein samples were separated by polyacrylamide gel electrophoresis followed by Western blotting. Blots were then incubated with primary antibody specific to the DNP moiety, followed by incubation with a horseradish peroxidase-antibody conjugate directed against the primary antibody. The blots were then treated with chemiluminescent reagents (Amersham) (Gemma et al., 2004).

α-synuclein = test: Oligomergic α-synuclein expression (western blot); assay type: in vivo, mice; conditions: striatum; for effect on MPTP-induced increase in oligomergic α-synuclein: vs. MPTP alone
Protocol: as §1

[5] = system: glial cell line-derived neurotrophic factor (GDNF); test: GDNF expression (western blot); assay type: in vivo, mice; conditions: striatum; for effect on MPTP-induced reduction of GDNF expression: pre-treatment, vs. MPTP alone
Protocol: as §1

MPTP-treated mice = test: Rota-rod test in MPTP-treated mice; conditions: 2.5 mg/kg i.p.; for effect on MPTP-impaired Rota-rod performance: vs. MPTP alone
Protocol: The apparatus (Ugo Basile model 7650) consisted of a base platform and a rotating rod with a nonslippery surface. The rod was placed at a height of 15 cm from the base. The rod, 30 cm in length, was divided into 5 equal sections by 6 opaque disks (so that the subjects cannot be distracted by one another). To assess motor performance, the mice were first trained on the apparatus 2 minutes at a rate 4 r.p.m. per 30 s prior to the test. The test was performed 30 minutes after training and an accelerating paradigm was applied at a rate 4 r.p.m. per 30 s, starting from 4 r.p.m. to a maximum speed of 40 r.p.m., then the rotation speed was kept constant at 40 r.p.m. for a maximum of 300 s. The duration for which the animal could maintain balance on the rotating drum was measured as the rotarod latency, with a maximal cut-off time of 300 s.

| SMILES | conditioned place preference (CPP) (mice) | effect on MPTP-induced decrease of TH-immunoreactivity (TH-IR) ([1]; SN) | TH-immunoreactivity [1] | effect on MPTP-induced decrease of TH-immunoreactivity (TH-IR) ([1]; striatum) | effect on MPTP-induced decrease of TH phosphorylation at Ser19, Ser31 and Ser40 ([2]; SN) | effect on MPTP-induced decrease of TH-immunoreactivity (TH-IR) ([2]; SN, western blotting) | effect on MPTP-induced decrease of TH phosphorylation at Ser19, Ser31 and Ser40 ([2]; striatum) | effect on MPTP-induced decrease of TH-immunoreactivity (TH-IR) ([2]; striatum, western blotting) | effect on MPTP-induced increase in F4/80-immunoreactivity [3] | ROS level [4] | effect on MPTP-induced increase in ROS level [4] | protein carbonyl expression (protein carbonyl) | effect on MPTP-induced increase in protein carbonyl expression (protein carbonyl) | effect on MPTP-induced increase in oligomergic α-synuclein (α-synuclein) | effect on MPTP-induced reduction of GDNF expression [5] | effect on MPTP-impaired Rota-rod performance (MPTP-treated mice) | other results |
| --- | --- | --- | --- | --- | --- | --- | --- | --- | --- | --- | --- | --- | --- | --- | --- | --- | --- |
| C#CCN(C)CCc1ccccc1 [MPPE, N-methyl-N-propynyl-2-phenylethylamine] | did not significantly change | significantly attenuated | did not show any significant effect | attenuated | reversed | attenuated | reversed | attenuated | significantly blocked increase in F4/80-immunoreactivity induced by MPTP; also recorded: attenuated | a little induction | attenuated | a little induction | attenuated | significantly attenuated | significantly attenuated | significantly attenuated | attenuation of TH-IR decrease compared with selegiline ([1]; striatum and SN, ICC, vs. selegiline+MPTP): more evident; effect on TH phosphorylation at Ser19, Ser31 and Ser40 compared with selegiline ([2]; striatum and SN, vs. selegiline+MPTP): more effective; attenuation of TH-IR decrease compared with selegiline ([2]; striatum and SN, western blotting, vs. selegiline+MPTP): more evident; attenuation of ROS increase compared with selegiline ([4]; vs. selegiline+MPTP): appeared to be more underlined in the MPPE-pretreated mice; attenuation of protein carbonyl increase compared with selegiline (protein carbonyl; vs. selegiline+MPTP): appeared to be more underlined in the MPPE-pretreated mice; protection against α-synuclein increase compared with selegiline (α-synuclein; vs. selegiline+MPTP): more protective effect; enhancement of GDNF expression compared with selegiline ([5]; vs. selegiline+MPTP): more effective; attenuation of MPTP-reduced rota-rod performance compared with selegiline (MPTP-treated mice; vs. selegiline-pretreated): more pronounced in the MPPE-pretreated mice than selegiline-pretreated case |
| C#CCN(C)[C@H](C)Cc1ccccc1 [selegiline, reference compound] | significantly increased compared with saline | significantly attenuated | did not show any significant effect | attenuated | reversed | attenuated | reversed | attenuated | significantly blocked increase in F4/80-immunoreactivity induced by MPTP; also recorded: attenuated | a little induction | attenuated | a little induction | attenuated | significantly attenuated | significantly attenuated | significantly attenuated | – |
